# Several values for one entry are separate records, joined by “and”; a condition that tells them apart may be missing. Equal values may be shown once. Inconclusive results and toxic doses are left out.
# Test system: CD2F1 mice, L1210 leukemia ip, survival T/C
# Test: NCI In Vivo Anticancer Drug Screen. Data for tumor model L1210 Leukemia (intraperitoneal) in CD2F1 (CDF1) mice
# Details: endpoint: mean survival time, higher = longer survival
# In short: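 In this screen, transplantable tumors were grown in mice given either the compound or its vehicle. Results were expressed as the treated measurement relative to the control measurement.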
# [1] = dose: 100.0 mg/kg/injection, schedule: Q04DX003 (ip), vehicle: saline
# [2] = dose: 200.0 mg/kg/injection, schedule: Q04DX003 (ip), vehicle: saline
# [3] = dose: 100.0 mg/kg/injection, schedule: Q01DX001 (ip), vehicle: saline with Tween-80
# [4] = dose: 200.0 mg/kg/injection, schedule: Q01DX001 (ip), vehicle: saline with Tween-80
# [5] = dose: 400.0 mg/kg/injection, schedule: Q01DX001 (ip), vehicle: saline with Tween-80
# [6] = dose: 100.0 mg/kg/injection, schedule: Q01DX001 (ip), vehicle: saline
# [7] = dose: 200.0 mg/kg/injection, schedule: Q01DX001 (ip), vehicle: saline
# [8] = dose: 100.0 mg/kg/injection, schedule: Q01DX009 (ip), vehicle: saline with Tween-80
# [9] = dose: 200.0 mg/kg/injection, schedule: Q01DX009 (ip), vehicle: saline with Tween-80
# [10] = dose: 400.0 mg/kg/injection, schedule: Q01DX009 (ip), vehicle: saline with Tween-80
# [11] = dose: 25.0 mg/kg/injection, schedule: Q04DX002 (ip), vehicle: saline with Tween-80
# [12] = dose: 50.0 mg/kg/injection, schedule: Q01DX009 (ip), vehicle: saline with Tween-80
# [13] = dose: 100.0 mg/kg/injection, schedule: Q04DX003 (ip), vehicle: saline with Tween-80
# [14] = dose: 200.0 mg/kg/injection, schedule: Q04DX003 (ip), vehicle: saline with Tween-80
# [15] = dose: 400.0 mg/kg/injection, schedule: Q04DX003 (ip), vehicle: saline with Tween-80
# [16] = dose: 50.0 mg/kg/injection, schedule: Q01DX009 (ip), vehicle: Klucel (hydroxypropylcellulose) (HPC)
# [17] = dose: 100.0 mg/kg/injection, schedule: Q01DX009 (ip), vehicle: Klucel (hydroxypropylcellulose) (HPC)
# [18] = dose: 100.0 mg/kg/injection, schedule: Q04DX002 (ip), vehicle: saline with Tween-80
# [19] = dose: 200.0 mg/kg/injection, schedule: Q04DX002 (ip), vehicle: saline with Tween-80
# [20] = dose: 200.0 mg/kg/injection, schedule: Q01DX009 (ip), vehicle: Klucel (hydroxypropylcellulose) (HPC)
smiles,measurement,setting,value
CN(C)Cc1[c-]c(CN(C)C)ccc1.[Br][Pt],T/C,"dose: 3.12 mg/kg/injection, schedule: Q04DX003 (ip), vehicle: saline",96 % of control
same,T/C,"dose: 6.25 mg/kg/injection, schedule: Q04DX003 (ip), vehicle: saline",97 % of control
same,T/C,"dose: 12.5 mg/kg/injection, schedule: Q04DX003 (ip), vehicle: saline",97 % of control
same,T/C,"dose: 25.0 mg/kg/injection, schedule: Q04DX003 (ip), vehicle: saline",108 % of control
same,T/C,"dose: 50.0 mg/kg/injection, schedule: Q04DX003 (ip), vehicle: saline",97 % of control
same,T/C,[1],105 % of control
same,T/C,[2],100 % of control
c1ccc(/C(N=NC(c2ccccc2)(c2ccccc2)c2ccccc2)=C(/N=NC(c2ccccc2)(c2ccccc2)c2ccccc2)c2ccccc2)cc1,T/C,[3],91 % of control
same,T/C,[4],101 % of control
same,T/C,[5],89 % of control
C#CCCO,T/C,"dose: 25.0 mg/kg/injection, schedule: Q01DX009 (ip), vehicle: saline",113 % of control
same,T/C,"dose: 50.0 mg/kg/injection, schedule: Q01DX009 (ip), vehicle: saline",98 % of control
same,T/C,"dose: 100.0 mg/kg/injection, schedule: Q01DX009 (ip), vehicle: saline",105 % of control
N/N=C(\N)c1ccccc1,T/C,[6],117 % of control
same,T/C,[7],123 % of control
Oc1ccccc1Br,T/C,[6],96 % of control
same,T/C,[7],93 % of control
O=C1CSCc2c1ccc1ccccc21,T/C,[8],98 % of control
same,T/C,[9],95 % of control
same,T/C,[10],96 % of control
O=S(=O)(O)c1cccc2ncccc12,T/C,"dose: 100.0 mg/kg/injection, schedule: Q01DX001 (ip), vehicle: Klucel (hydroxypropylcellulose) (HPC)",113 % of control
same,T/C,"dose: 200.0 mg/kg/injection, schedule: Q01DX001 (ip), vehicle: Klucel (hydroxypropylcellulose) (HPC)",92 % of control
same,T/C,"dose: 400.0 mg/kg/injection, schedule: Q01DX001 (ip), vehicle: Klucel (hydroxypropylcellulose) (HPC)",95 % of control
NC(=S)N/N=C/c1ccc(Br)cn1,T/C,"dose: 12.5 mg/kg/injection, schedule: Q04DX002 (ip), vehicle: saline with Tween-80",110 % of control
same,T/C,[11],110 % of control
O=C(N/N=C\c1ccc(Cl)cc1)c1ccccc1,T/C,[12],94 % of control
same,T/C,[8],101 % of control
same,T/C,[9],95 % of control
Cc1cccc(C)c1NC(=O)c1ccccc1C(=O)O,T/C,[8],92 % of control
same,T/C,[13],98 % of control
same,T/C,[9],92 % of control
same,T/C,[14],98 % of control
same,T/C,[10],97 % of control
same,T/C,[15],96 % of control
Cc1ccc(Cc2cc(=O)[nH]c(=O)[nH]2)cc1,T/C,"dose: 25.0 mg/kg/injection, schedule: Q01DX009 (ip), vehicle: Klucel (hydroxypropylcellulose) (HPC)",96 % of control
same,T/C,[16],100 % of control
same,T/C,[17],94 % of control and 96 % of control
COC1OC(COS(C)(=O)=O)C(OS(C)(=O)=O)C(OS(C)(=O)=O)C1OS(C)(=O)=O (stereo not given),T/C,[8],95 % of control
same,T/C,[9],101 % of control
same,T/C,[10],94 % of control
COC(=O)c1ccccc1C(=O)c1n[nH]c2ccccc12,T/C,[11],103 % of control
same,T/C,"dose: 50.0 mg/kg/injection, schedule: Q04DX002 (ip), vehicle: saline with Tween-80",106 % of control
same,T/C,[18],106 % of control
same,T/C,[19],106 % of control
COC(=O)C1C2CC(C3OC23)C1C(=O)OC (stereo not given),T/C,[8],100 % of control
same,T/C,[13],97 % of control
same,T/C,[9],115 % of control
same,T/C,[14],89 % of control
same,T/C,[10],102 % of control
same,T/C,[15],103 % of control
c1cc2c(cc1-c1nnc(-c3ccc4c(c3)OCO4)nn1)OCO2,T/C,"dose: 12.5 mg/kg/injection, schedule: Q01DX001 (ip), vehicle: saline with Tween-80",91 % of control
same,T/C,"dose: 12.5 mg/kg/injection, schedule: Q01DX009 (ip), vehicle: saline with Tween-80",94 % of control
same,T/C,"dose: 25.0 mg/kg/injection, schedule: Q01DX001 (ip), vehicle: saline with Tween-80",90 % of control
same,T/C,"dose: 25.0 mg/kg/injection, schedule: Q01DX009 (ip), vehicle: saline with Tween-80",96 % of control
same,T/C,"dose: 50.0 mg/kg/injection, schedule: Q01DX001 (ip), vehicle: saline with Tween-80",95 % of control
same,T/C,[12],88 % of control
CC12CCC(O)CC1CCC1C2CCC2(C)C(C3COC(=O)C3)CCC12 (stereo not given),T/C,"dose: 50.0 mg/kg/injection, schedule: Q01DX001 (ip), vehicle: saline",98 % of control
same,T/C,[6],98 % of control
same,T/C,[7],96 % of control
Cc1n[nH]n(Cc2ccccc2)c1=O,T/C,"dose: 25.0 mg/kg/injection, schedule: Q01DX005 (ip), vehicle: saline with Tween-80",97 % of control
same,T/C,"dose: 50.0 mg/kg/injection, schedule: Q01DX005 (ip), vehicle: saline with Tween-80",99 % of control
same,T/C,"dose: 100.0 mg/kg/injection, schedule: Q01DX005 (ip), vehicle: saline with Tween-80",97 % of control
same,T/C,"dose: 200.0 mg/kg/injection, schedule: Q01DX005 (ip), vehicle: saline with Tween-80",99 % of control
same,T/C,"dose: 400.0 mg/kg/injection, schedule: Q01DX005 (ip), vehicle: saline with Tween-80",97 % of control
Cc1cccc(CC(C)O)n1 (stereo not given),T/C,[6],96 % of control
same,T/C,[18],97 % of control
same,T/C,"dose: 100.0 mg/kg/injection, schedule: Q04DX002 (ip), vehicle: saline",93 % of control
same,T/C,[13],96 % of control and 97 % of control
same,T/C,[7],94 % of control
same,T/C,[19],106 % of control
same,T/C,"dose: 200.0 mg/kg/injection, schedule: Q04DX002 (ip), vehicle: saline",96 % of control
same,T/C,[14],86 % of control and 112 % of control
same,T/C,"dose: 400.0 mg/kg/injection, schedule: Q01DX001 (ip), vehicle: saline",98 % of control
same,T/C,"dose: 400.0 mg/kg/injection, schedule: Q04DX002 (ip), vehicle: saline with Tween-80",93 % of control
same,T/C,"dose: 400.0 mg/kg/injection, schedule: Q04DX002 (ip), vehicle: saline",93 % of control
same,T/C,[15],97 % of control and 106 % of control
O=C(Nc1ccc(F)c(Cl)c1)Oc1ccc(OCc2ccccc2)cc1,T/C,[16],87 % of control
same,T/C,[17],98 % of control
same,T/C,[20],93 % of control
CCCCCCCCC(=O)CC,T/C,[1],98 % of control
same,T/C,[2],98 % of control
same,T/C,"dose: 400.0 mg/kg/injection, schedule: Q04DX003 (ip), vehicle: saline",93 % of control
CC(C)n1cnc2c(=S)nc[nH]c21,T/C,"dose: 41.0 mg/kg/injection, schedule: Q01DX Z (ip), vehicle: saline",121 % of control
same,T/C,"dose: 94.0 mg/kg/injection, schedule: Q01DX Z (ip), vehicle: saline",171 % of control
O=C(COc1ccc(Cl)cc1C(=O)O)NCc1cccc(NC(=O)Nc2cccc(S(=O)(=O)F)c2)c1,T/C,[3],91 % of control
same,T/C,[4],93 % of control
same,T/C,[5],88 % of control
CN1CCOc2ccccc2OCCOCCOc2ccccc2OCC1,T/C,[17],105 % of control
same,T/C,[20],106 % of control
CC1(CO)C2C=CC(C2)C1(C)CO (stereo not given),T/C,"dose: 75.0 mg/kg/injection, schedule: Q01DX001 (ip), vehicle: saline",105 % of control
same,T/C,"dose: 150.0 mg/kg/injection, schedule: Q01DX001 (ip), vehicle: saline",105 % of control
CN(C)N=Nc1ccc(C(F)(F)F)cc1,T/C,"dose: 118.0 mg/kg/injection, schedule: Q01DX009 (ip), vehicle: Klucel (hydroxypropylcellulose) (HPC)",101 % of control
same,T/C,"dose: 177.0 mg/kg/injection, schedule: Q01DX009 (ip), vehicle: Klucel (hydroxypropylcellulose) (HPC)",102 % of control
Nc1nc(SCc2ccc([N+](=O)[O-])cc2)c2[nH]cnc2n1,T/C,[8],94 % of control
same,T/C,[13],97 % of control
same,T/C,[9],101 % of control
same,T/C,[14],97 % of control
same,T/C,[10],95 % of control
same,T/C,[15],96 % of control
CC1(C)CCC2(C)CCC3(C)C(=CCC4C5(C)CCC(O)C(C)(C)C5CCC43C)C2C1 (stereo not given),T/C,[13],98 % of control
same,T/C,[14],90 % of control
same,T/C,[15],91 % of control
c1ccc(Oc2cc[c]([Sn]([c]3ccccc3)([c]3ccccc3)[c]3ccc(Oc4ccccc4)cc3)cc2)cc1,T/C,[8],106 % of control
same,T/C,[9],100 % of control
same,T/C,[10],98 % of control

# — PubChem BioAssay AID256 (DTP/NCI, 2004)
